Source: patent publication US12570667B2, “Compounds with antibacterial and anti viral activities” (priority 2020, dated 2026)
Converted amounts (≈) assume the structure as drawn. Read-outs that look alike come from different tables or passages of the source.

How the values were obtained:
S. aureus [1] = experiment: Antibacterial activity by spread plate-disc diffusion method; format: cell-based; conditions: 20 μl from 1 mg/ml stock per disc, 37° C., 24 h, "0" indicates no antibacterial activity
Experimental: (§1) In an embodiment, the antibacterial activity of nigericin and compounds of formula I are determined by the Disc diffusion method. […] The compounds of formula I are found to be inhibiting both gram-positive and gram-negative bacteria.
(§2) Nigericin along with compounds of formula I were tested against Gram-positive (S. aureus) and Gram-negative (E. coli) test organisms by spread plate-disc diffusion method. 20 μl from 1 mg/ml concentration stock was used per disc for each test compound and plated were incubated at 37° C. for 24 h. After the incubation period zone of inhibition was measured.

E. coli [2] = experiment: as above; format: cell-based; conditions: 20 μl from 1 mg/ml stock per disc, 37° C., 24 h, "0" indicates no antibacterial activity
Experimental: as §1, §2

S. aureus [3] = experiment: Minimum inhibitory concentration by micro-dilution method; format: cell-based; conditions: Staphylococcus aureus; Gram-positive bacteria S. aureus
Experimental: (§3) MIC determination: Minimum inhibitory concentration was determined using micro-dilution method in the 96 well plates. 20 μl from 1 mg/ml stock was mixed with culture to get 66 μg/ml concentration and serially diluted in further well to get a concentration of 33 μg/ml, 16.5 μg/ml and so on, refer FIG. 1.

E. coli [4] = experiment: as above; format: cell-based; conditions: Gram-negative organism E. coli; for MIC: Escherichia coli
Experimental: as §3

[5] = In-vitro toxicity, MTT assay; format: cell-based, mouse; conditions: mouse, wild-type mouse embryonic fibroblast cells (WTMEFs), read-out: Cytotoxicity IC50; for IC50 at 2 h: 2 h treatment; for IC50 at 24 h: 24 h treatment
Experimental: (§4) In a preferred embodiment, nigericin and compounds of formula I are tested for toxicity on Wild type mouse fibroblast cell lines using 3-(4,5-dimethylthiazol-2-yl)-2,5-diphenyltetrazolium bromide assay (MTT assay).
(§5) Wild-type mouse fibroblast cell line (WTMEFs) was used to assess the toxicity associated with nigericin and its fluorinated analogues for the viability using 3-(4,5-dimethylthiazol-2-yl)-2,5-diphenyltetrazolium bromide assay (MTT assay). WTMEFs cell line was seeded in 96-well plates at a density of 5000 cells per well in […] DMEM media containing 10% FBS. The cell lines were incubated for 24 h in a CO2 incubator at 37° C. After 24 h, the drug was added at a concentration of […] and incubated for 2 h and 24 h. MTT assay was carried out to verify the cell viability after 2 h and 24 h of drug treatment in respective plates. All drug concentration was used in triplicate (n=3).

Polio Virus = conditions: read-out: effective concentration (EC50), inhibition of viral RNA synthesis; cited from earlier work
[6] = tested on: Wild-type mouse fibroblast cell line (WTMEFs); experiment: In-vitro toxicity, MTT assay; format: cell-based; conditions: 24 h treatment, read-out: Cytotoxicity IC50
Experimental: as §4, §5

| SMILES | Antibacterial activity by disc diffusion method (Zone measured in mm) (S. aureus [1]) [mm] | Antibacterial activity by disc diffusion method (Zone measured in mm) (E. coli [2]) [mm] | MIC (S. aureus [3]) [µM] | MIC (E. coli [4]) [µM] | IC50 at 2 h [5] [mM] | IC50 at 2 h ([5]; unit mM) [mM] | IC50 at 24 h [5] [mM] | IC50 at 24 h ([5]; unit mM) [mM] | Minimum inhibitory concentration (MIC) (E. coli [4]) | EC50 (Polio Virus) [µM] | IC50 [6] [µM] |
| --- | --- | --- | --- | --- | --- | --- | --- | --- | --- | --- | --- |
| COC1C[C@@H](C[C@H]2CC[C@H](C)C([C@@H](C)C(=O)Oc3ccccc3)O2)O[C@]2(O[C@](C)(C3CC[C@@](C)(C4OC(C5O[C@@](O)(CO)[C@H](C)C[C@@H]5C)C[C@@H]4C)O3)C[C@H]2C)C1C (stereo partly drawn) [Analog N-1, phenyl (2R)-2-((3S,6R)-6-(((2S,4R,5R,7R)-2-((2S,3′S)-5′-((3S,5R,6R)-6-hydroxy-6-(hydroxymethyl)-3,5-dimethyltetrahydro-2H-pyran-2-yl)-2,3′-dimethyloctahydro-[2,2′-bifuran]-5-yl)-9-methoxy-2,4,10-trimethyl-1,6-dioxaspiro[4.5]decan-7-yl)methyl)-3-methyltetrahydro-2H-pyran-2-yl)propanoate] | 0 | 0 | – | – | – | – | – | – | – | – | – |
| COc1ccc(OC(=O)[C@H](C)C2O[C@@H](C[C@@H]3CC(OC)C(C)[C@]4(O3)O[C@](C)(C3CC[C@@](C)(C5OC(C6O[C@@](O)(CO)[C@H](C)C[C@@H]6C)C[C@@H]5C)O3)C[C@H]4C)CC[C@@H]2C)cc1 (stereo partly drawn) [Analog N-2] | 0 | 0 | – | – | – | – | – | – | – | – | – |
| COC1C[C@@H](C[C@H]2CC[C@H](C)C([C@@H](C)C(=O)Nc3ccccc3F)O2)O[C@]2(O[C@](C)(C3CC[C@@](C)(C4OC(C5O[C@@](O)(CO)[C@H](C)C[C@@H]5C)C[C@@H]4C)O3)C[C@H]2C)C1C (stereo partly drawn) [Analog N-3, (2R)—N-(2-fluorophenyl)-2-((3S,6R)-6-(((2S,4R,5R,7R)-2-((2S,3′S)-5′-((3S,5R,6R)-6-hydroxy-6-(hydroxymethyl)-3,5-dimethyltetrahydro-2H-pyran-2-yl)-2,3′-dimethyloctahydro-[2,2′-bifuran]-5-yl)-9-methoxy-2,4,10-trimethyl-1,6-dioxaspiro[4.5]decan-7-yl)methyl)-3-methyltetrahydro-2H-pyran-2-yl)propanamide] | 31 | 33 | 2.5 (≈ 2.05 µg/mL) | 0.3 (≈ 0.245 µg/mL) | > 0.1 | > 0.1 | 0.0669 | 0.0669 | – | – | – |
| COC1C[C@@H](C[C@H]2CC[C@H](C)C([C@@H](C)C(=O)Nc3ccc(F)cc3)O2)O[C@]2(O[C@](C)(C3CC[C@@](C)(C4OC(C5O[C@@](O)(CO)[C@H](C)C[C@@H]5C)C[C@@H]4C)O3)C[C@H]2C)C1C (stereo partly drawn) [Analog N-5] | 23 | 30 | 5 (≈ 4.09 µg/mL) | 0.3 (≈ 0.245 µg/mL) | > 0.1 | > 0.1 | 0.0598 | 0.0598 | – | – | – |
| CO[C@@H]1C[C@@H](C[C@H]2CC[C@H](C)[C@H]([C@@H](C)C(=O)O)O2)O[C@]2(O[C@](C)([C@H]3CC[C@@](C)([C@@H]4O[C@@H]([C@H]5O[C@@](O)(CO)[C@H](C)C[C@@H]5C)C[C@@H]4C)O3)C[C@H]2C)[C@@H]1C [Nigericin, reference compound] | 22 | 0 | 0.3 (≈ 0.217 µg/mL) | – | ~0.01 | ~0.01 | ~0.01 | ~0.01 | did not show any inhibition | ~1 | 9.22 |
